How the values were obtained:
Format in all cases: in vitro ADME
P450 2C19 = biological target: T1, P450 2C19 (Homo sapiens, UniProt P33261); experiment: metabolism of 3 by recombinant human P450; conditions: recombinant P450 2C19, preliminary screen
T1 construct: made in house; host or cells: Escherichia coli, bacterial membrane fraction, bicistronic vector; reductase topped up to five fold the P450 concentration
Excerpt: (§1) Recombinant P450s were co-expressed with hNPR in Escherichia coli according to the general procedures outlined previously. Recombinant P450 preparations were obtained from bacteria transformed with bicistronic expression vectors for P450s 1A1, 1A2, 2D6, 2E1 and 3A4 [6]; 1B1 [10]; 2A6 [8]; P450 2B6 [11]; 2C9 (wild type; P450 2C9*1) and 2C19 [12]; 3A5 and 3A7 [12] and 4A11 (D. Kim and F. P. Guengerich, unpublished data). cDNAs for P450s 2C8 and 2C18 were obtained from Prof D. J. Birkett (Flinders University of South Australia) and Prof. Philippe Beaune (INSERM U490, Universite Rene Descartes, Paris V, France) respectively, and bicistronic constructs in pCW were made according to previously published methods. Membranes from cells transformed with the monocistronic expression vector for recombinant human reductase, pCW′/hNPR, were used as a negative control. Expression of P450s and preparation of bacterial membrane fractions was done according to established methods.
(§2) Incubations (0.2 mL) with recombinant enzyme preparations were performed as described above except that bacterial membrane preparations were used at 0.1 μM P450. For P450s 3A4 and 3A5, reductase concentrations were supplemented to two fold the P450 concentration by addition of membranes from cells expressing reductase alone. For P450s 2C9 and 2C19, reductase concentrations were supplemented to five fold the P450 concentration. Negative controls contained bacterial membranes derived from cells transformed with the empty expression vector alone (“pCW”) or cells expressing only reductase (“hNPR”). Negative controls contained membranes added at total protein (“pCW”) or reductase “hNPR”) concentrations at the upper limit of those present in incubations with recombinant P450 preparations.
(§3) A preliminary screen was performed to investigate metabolism of 3 by recombinant human P450s.

P450 2C8 = biological target: T2, P450 2C8 (Homo sapiens, UniProt P10632); experiment: metabolism of 3 by recombinant human P450; conditions: recombinant P450 2C8, preliminary screen
T2 construct: made in house; host or cells: Escherichia coli, bacterial membrane fraction, bicistronic construct in pCW
T2 sequence (P10632 1-490): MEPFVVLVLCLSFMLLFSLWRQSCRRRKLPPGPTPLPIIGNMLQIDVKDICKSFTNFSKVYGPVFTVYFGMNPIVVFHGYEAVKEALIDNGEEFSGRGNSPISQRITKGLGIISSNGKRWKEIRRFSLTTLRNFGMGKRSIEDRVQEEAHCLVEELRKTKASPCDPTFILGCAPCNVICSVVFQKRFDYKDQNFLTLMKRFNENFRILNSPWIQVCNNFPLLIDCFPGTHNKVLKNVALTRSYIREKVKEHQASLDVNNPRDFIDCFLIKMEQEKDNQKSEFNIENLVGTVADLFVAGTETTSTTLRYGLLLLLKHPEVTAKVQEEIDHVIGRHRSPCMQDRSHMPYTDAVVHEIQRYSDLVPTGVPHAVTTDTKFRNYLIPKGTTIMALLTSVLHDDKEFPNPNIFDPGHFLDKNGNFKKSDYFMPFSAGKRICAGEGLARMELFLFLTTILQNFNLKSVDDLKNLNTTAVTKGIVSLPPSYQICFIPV
Excerpt: as §1, §2, §3

liver P450 = experiment: inhibition of 2,4-diene alkylamide metabolism by co-incubation with a 2-ene alkylamide in human liver microsomes; conditions: co-incubation of 3 with 6 at equimolar concentrations, 90 minutes
Protocol: Compound 3 was present at 20 μM in all experiments while 6 was present at (●) 0, (∘) 0.22, (▪) 2.2, ( ) 5.5, (▴) 9.0 and (Δ) 20 uM. Each point represents the mean for one microsomal preparation examined in duplicate. The deviation was less than 15 for each point.
Incubations (0.5 mL) with tissue fractions contained either the microsomal fraction at 0.1-0.2 mM P450 or the cytosolic fraction at 5 mg/mL protein in 100 mM potassium phosphate (pH 7.4) supplemented with is substrates (synthetic alkylamides 6, 11, 3 and 12 or the alkylamide fraction from the ethanolic liquid as required—see Figure legends for concentrations used) added from ethanolic stocks. Final ethanol concentrations were either 0.70% or 0.96% and were consistent in each assay. Reactions were initiated by the addition of an NADPH-generating system consisting of (final concentrations) 250 mM NADP+, 10 mM glucose-6-phosphate and 0.5 μ/mL glucose-6-phosphate dehydrogenase. Negative controls and cytosolic incubations lacked an NADPH-generating system. Reaction mixtures were incubated at 37° C. with gentle agitation for the duration of each experiment. Reactions were terminated by addition of an equal volume of 100% methanol to a sample aliquot. Diluted samples were then centrifuged at 16000×g for 2 minutes and supernatants stored at −20° C. until analysis by LCMS.

T1 sequence (P33261 whole entry): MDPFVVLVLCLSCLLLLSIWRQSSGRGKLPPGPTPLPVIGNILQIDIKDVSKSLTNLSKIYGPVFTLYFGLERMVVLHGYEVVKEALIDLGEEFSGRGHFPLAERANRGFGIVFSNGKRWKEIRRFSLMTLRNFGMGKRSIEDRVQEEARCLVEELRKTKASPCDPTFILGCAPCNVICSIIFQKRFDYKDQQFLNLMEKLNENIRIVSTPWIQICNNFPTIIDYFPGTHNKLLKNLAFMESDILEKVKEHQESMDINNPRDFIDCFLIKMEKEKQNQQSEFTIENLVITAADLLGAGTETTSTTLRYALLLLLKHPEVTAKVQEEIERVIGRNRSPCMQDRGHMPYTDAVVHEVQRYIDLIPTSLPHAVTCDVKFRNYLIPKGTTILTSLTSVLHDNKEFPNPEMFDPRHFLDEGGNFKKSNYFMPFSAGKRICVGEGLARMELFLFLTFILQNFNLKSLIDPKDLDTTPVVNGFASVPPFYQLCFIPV

Compound: C/C=C\C=C/CC/C=C/C=C/C(=O)NCC(C)C [alkylamide 3, (2E,4E,8Z,10Z)—N-isobutyldodeca-2,4,8,10-tetraenamide]
- consumption of 3 (P450 2C19): observed
- consumption of 3 (P450 2C8): observed
- % of the original concentration of 3 detected (liver P450): 83±4%
